From PubChem BioAssay AID330 (DTP/NCI, 2004)
Where “and” joins values, the source holds several entries; their conditions need not be identical. Identical values can stand only once. Toxic doses and inconclusive results are not listed. How the source made its calls: active means survival T/C of 150% or more; inactive means T/C below 125% in these data.

System: P388 leukemia ip, CD2F1 mice, survival T/C
Experiment: NCI In Vivo Anticancer Drug Screen. Data for tumor model P388 Leukemia (intraperitoneal) in CD2F1 (CDF1) mice
Conditions: endpoint: median survival time, higher = longer survival
Experimental: The antitumor activity of compounds was measured in mice bearing transplantable tumors. Survival or tumor size were measured and the results are expressed as the measurement made in the treated group (T) divided by the measurement made in the vehicle treated control group (C). The tumor model used in this assay is P388 Leukemia (intraperitoneal) in CD2F1 (CDF1) mice

[1] = dose: 50.0 mg/kg/injection, schedule: Q01DX009 (ip), vehicle: saline with Tween-80
[2] = dose: 100.0 mg/kg/injection, schedule: Q01DX009 (ip), vehicle: saline with Tween-80
[3] = dose: 200.0 mg/kg/injection, schedule: Q01DX009 (ip), vehicle: saline with Tween-80
[4] = dose: 60.0 mg/kg/injection, schedule: Q01DX005 (ip), vehicle: saline
[5] = dose: 120.0 mg/kg/injection, schedule: Q01DX005 (ip), vehicle: saline
[6] = dose: 240.0 mg/kg/injection, schedule: Q01DX005 (ip), vehicle: saline
[7] = dose: 50.0 mg/kg/injection, schedule: Q01DX005 (ip), vehicle: saline with Tween-80
[8] = dose: 100.0 mg/kg/injection, schedule: Q01DX005 (ip), vehicle: saline with Tween-80
[9] = dose: 200.0 mg/kg/injection, schedule: Q01DX005 (ip), vehicle: saline with Tween-80

Measured: T/C

CC(=O)[O][Hg][c]1s[c]([Hg][O]C(C)=O)[c]([Hg][O]C(C)=O)[c]1[Hg][O]C(C)=O
inactive: dose: 3.0 mg/kg/injection, schedule: Q01DX009 (ip), vehicle: saline with Tween-80 120 % of control | dose: 4.0 mg/kg/injection, schedule: Q01DX009 (ip), vehicle: saline with Tween-80 109 % of control | dose: 6.0 mg/kg/injection, schedule: Q01DX009 (ip), vehicle: saline with Tween-80 104 % of control | dose: 9.0 mg/kg/injection, schedule: Q01DX009 (ip), vehicle: saline with Tween-80 90 % of control

C=C(C)CSc1ncnc2nc[nH]c12
inactive: dose: 100.0 mg/kg/injection, schedule: Q04DX003 (ip), vehicle: saline with Tween-80 104 % of control | dose: 200.0 mg/kg/injection, schedule: Q04DX003 (ip), vehicle: saline with Tween-80 100 % of control | dose: 400.0 mg/kg/injection, schedule: Q04DX003 (ip), vehicle: saline with Tween-80 100 % of control

COC(=O)C(Cl)Cc1cncn1C (stereo not given)
inactive: [1] 94 % of control | [2] 92 % of control | [3] 93 % of control

COCC1CCOC(C(C)C)O1 (stereo not given)
inactive: [4] 101 % of control | [5] 100 % of control | [6] 100 % of control

CN(C)c1ccc2ccc(N(C)C)nc2c1
inactive: dose: 12.5 mg/kg/injection, schedule: Q01DX009 (ip), vehicle: saline with Tween-80 93 % of control | dose: 25.0 mg/kg/injection, schedule: Q01DX009 (ip), vehicle: saline with Tween-80 117 % of control | [1] 89 % of control and 95 % of control

CCCCCCCCCC[N+](C)(C)CCCO
inactive: dose: 12.5 mg/kg/injection, schedule: Q01DX009 (ip), vehicle: saline 96 % of control | dose: 25.0 mg/kg/injection, schedule: Q01DX009 (ip), vehicle: saline 112 % of control | dose: 50.0 mg/kg/injection, schedule: Q01DX009 (ip), vehicle: saline 118 % of control

CC(C)c1cc2c(cc1O)C[C@@]1(O)CCCC(C)(C)C1CC2 (stereo not given in full)
inactive: dose: 7.0 mg/kg/injection, schedule: Q01DX005 (ip), vehicle: other 100 % of control | dose: 14.0 mg/kg/injection, schedule: Q01DX005 (ip), vehicle: other 100 % of control | dose: 28.0 mg/kg/injection, schedule: Q01DX005 (ip), vehicle: other 104 % of control | dose: 56.0 mg/kg/injection, schedule: Q01DX005 (ip), vehicle: other 99 % of control

COc1cc(C(=O)CC2=NC3NN(c4ccccc4)C(=O)C3=C2CC(=O)c2ccc(O)c(OC)c2)ccc1O (stereo not given)
inactive: [4] 100 % of control | [5] 102 % of control | [6] 98 % of control

CC1(C)Cc2cc3ccccc3nc2-c2ccccc21
inactive: [7] 107 % of control | [8] 102 % of control | [9] 107 % of control

Cc1ncc(O)c(C(=O)O)c1C(=O)O
inactive: dose: 17.5 mg/kg/injection, schedule: Q01DX005 (ip), vehicle: Klucel (hydroxypropylcellulose) (HPC) 100 % of control | dose: 35.0 mg/kg/injection, schedule: Q01DX005 (ip), vehicle: Klucel (hydroxypropylcellulose) (HPC) 103 % of control | dose: 70.0 mg/kg/injection, schedule: Q01DX005 (ip), vehicle: Klucel (hydroxypropylcellulose) (HPC) 100 % of control

CC(C)SSC(=O)N1CCCC1C(=O)O (stereo not given)
inactive: dose: 15.0 mg/kg/injection, schedule: Q01DX005 (ip), vehicle: saline 106 % of control | dose: 30.0 mg/kg/injection, schedule: Q01DX005 (ip), vehicle: saline 98 % of control | [4] 98 % of control

CC(=O)N=C1CSc2ccccc2N1C
inactive: dose: 50.0 mg/kg/injection, schedule: Q01DX005 (ip), vehicle: saline + alcohol 99 % of control | dose: 100.0 mg/kg/injection, schedule: Q01DX005 (ip), vehicle: saline + alcohol 103 % of control | dose: 200.0 mg/kg/injection, schedule: Q01DX005 (ip), vehicle: saline + alcohol 109 % of control

CCc1ccccc1NC(=O)NCC(C)C
inactive: dose: 50.0 mg/kg/injection, schedule: Q01DX009 (ip), vehicle: Klucel (hydroxypropylcellulose) (HPC) 105 % of control | dose: 100.0 mg/kg/injection, schedule: Q01DX009 (ip), vehicle: Klucel (hydroxypropylcellulose) (HPC) 97 % of control | dose: 200.0 mg/kg/injection, schedule: Q01DX009 (ip), vehicle: Klucel (hydroxypropylcellulose) (HPC) 105 % of control

NOCc1csc(N)n1
inactive: dose: 75.0 mg/kg/injection, schedule: Q01DX009 (ip), vehicle: saline 91 % of control | dose: 150.0 mg/kg/injection, schedule: Q01DX009 (ip), vehicle: saline 91 % of control | dose: 300.0 mg/kg/injection, schedule: Q01DX009 (ip), vehicle: saline 91 % of control

CC(C)(C)c1cc2c(c(C(C)(C)C)c1)[O][Sb]([c]1ccccc1)([c]1ccccc1)([c]1ccccc1)[NH]2
inactive: [1] 110 % of control | [2] 115 % of control

Cc1ncc([N+](=O)[O-])n1CCO
inactive: dose: 16.0 mg/kg/injection, schedule: Q01DX009 (ip), vehicle: saline with Tween-80 112 % of control | dose: 32.0 mg/kg/injection, schedule: Q01DX009 (ip), vehicle: saline with Tween-80 108 % of control | [1] 98 % of control | dose: 64.0 mg/kg/injection, schedule: Q01DX009 (ip), vehicle: saline with Tween-80 102 % of control and 108 % of control | [2] 118 % of control | dose: 128.0 mg/kg/injection, schedule: Q01DX009 (ip), vehicle: saline with Tween-80 100 % of control and 109 % of control | [3] 107 % of control | dose: 250.0 mg/kg/injection, schedule: Q01DX001 (ip), vehicle: saline with Tween-80 103 % of control | dose: 256.0 mg/kg/injection, schedule: Q01DX009 (ip), vehicle: saline with Tween-80 108 % of control | dose: 360.0 mg/kg/injection, schedule: Q01DX001 (ip), vehicle: saline with Tween-80 100 % of control and 103 % of control | dose: 400.0 mg/kg/injection, schedule: Q01DX009 (ip), vehicle: saline with Tween-80 111 % of control | dose: 500.0 mg/kg/injection, schedule: Q01DX001 (ip), vehicle: saline with Tween-80 103 % of control | dose: 512.0 mg/kg/injection, schedule: Q01DX009 (ip), vehicle: saline with Tween-80 100 % of control | dose: 600.0 mg/kg/injection, schedule: Q01DX001 (ip), vehicle: saline with Tween-80 100 % of control and 97 % of control | dose: 1000.0 mg/kg/injection, schedule: Q01DX001 (ip), vehicle: saline with Tween-80 102 % of control and 104 % of control and 101 % of control | dose: 2000.0 mg/kg/injection, schedule: Q01DX001 (ip), vehicle: saline with Tween-80 99 % of control

C[Si]1(C)N[Si](C)(C)N([Si](C)(C)C)[Si](C)(C)N1
inactive: [7] 93 % of control | [8] 101 % of control | [9] 109 % of control

O=[N+]([O-])c1cccc(S(=O)(=O)N/N=C/c2cccc([N+](=O)[O-])c2O)c1
inactive: dose: 60.0 mg/kg/injection, schedule: Q01DX005 (ip), vehicle: saline with Tween-80 106 % of control | dose: 120.0 mg/kg/injection, schedule: Q01DX005 (ip), vehicle: saline with Tween-80 107 % of control | dose: 240.0 mg/kg/injection, schedule: Q01DX005 (ip), vehicle: saline with Tween-80 104 % of control

CN(C)C(=O)On1cc(Cl)cc1C#N
inactive: dose: 6.25 mg/kg/injection, schedule: Q04DX003 (ip), vehicle: Klucel (hydroxypropylcellulose) (HPC) 102 % of control | dose: 12.5 mg/kg/injection, schedule: Q04DX003 (ip), vehicle: Klucel (hydroxypropylcellulose) (HPC) 98 % of control | dose: 25.0 mg/kg/injection, schedule: Q04DX003 (ip), vehicle: Klucel (hydroxypropylcellulose) (HPC) 100 % of control | dose: 75.0 mg/kg/injection, schedule: Q04DX003 (ip), vehicle: Klucel (hydroxypropylcellulose) (HPC) 98 % of control

Cc1nn(C(N)=S)c(C)c1N=Nc1ccc(O)cc1
inactive: [7] 103 % of control | [8] 103 % of control | [9] 107 % of control
